# Source: patent publication US7858738B2, “Synthetic human peptides and pharmaceutical compositions comprising them for the treatment of systemic lupus erythematosus” (Yeda Research and Development Co., Ltd., priority 2001, dated 2010)
# Columns and labels:
# [1] = tested on: lymph node cultures of BALB/c mice; experiment: Cytokines in supernatants of 16/6Id-stimulated lymph node cultures of BALB/c mice with experimental SLE; type: in vivo; conditions: after 10 treatment injections
# Method: (§1) Induction and treatment of experimental SLE. In order to induce experimental SLE, BALB/c mice were immunized with 1-2 μg of the human mAb 16/6Id and boosted 3 weeks later. For the prevention of experimental SLE, mice were given hCDR1 or hCDR3 (mCDR1 or revmCDR1 as control peptide in Example 12) intravenously (i.v.) or s.c. concomitant with the immunization, and were injected weekly thereafter for 5 weeks. Treatment of an established disease started three and a half months following disease induction with the 16/6Id, when clinical manifestations were already observed. In Example 12, mice received 10 weekly injections (i.v. or s.c.) of mCDR1 or revmCDR1 at a dose of 100 μg/mouse. Prevention and treatment of SLE-like disease in (NZB×NZW)F1 mice with the hCDR1 or mCDR1 peptide. For prevention of SLE, mice at the age of 2 months, before disease manifestations are observed, were injected s.c. with hCDR1 (or mCDR1 in Example 12, 250 μg/mouse) once a week for 10 weeks. To treat an established disease, mice at the age of 5-7 months were injected with hCDR1 (in Example 12, mCDR1 s.c., 250 μg/mouse) once a week for 10 weeks. Proliferative Responses. PBL were isolated from heparinized venous blood by Ficoll-Hypaque (Pharmacia) density-gradient centrifugation. All assays were performed, in triplicate, in flat-bottomed microtiter plates (Falcon, Becton Dickinson, Oxmard, Calif., USA) in which 2×10^5 PBL were cultured in enriched RPMI-1640 as described (Dayan et al., 2000). The PBL were exposed to various concentrations (0.1-40 μg/well) of the human anti-DNA 16/6Id mAb with and without the addition of the various CDR-based peptides at a concentration of at least 10-fold excess over that of the 16/6Id. Phytohemagglutinin (PHA; 2 μg/well) was used as a control for culture conditions at each experiment. The cultures were incubated in 7.5% CO2 at 37° C. for 6 days. Eighteen hours before the cells were harvested, [^3H]-thymidine (0.5μ Ci of 5 Ci/mmol) (Nuclear Research Center, Negev, Israel) was added to all cultures. Results are expressed as the mean thymidine incorporation in counts per minute (CPM) of triplicate culture±SD, or as stimulation index (S.I.; the ratio of mean CPM at the optimal concentration of the human 16/6Id to the mean CPM in the presence of medium alone). […] TGF-β was determined by an ELISA. […] The substrate solution used was TMB color Reagent (Helix Diagnostics, West Sacramento, Calif.), and enzyme activity was evaluated by using 570- and 630-nm filters. […] Proteinuria was measured semiquantitatively by using Combistix kit (Ames Division, Bayer Diagnostics, Newbury, U.K.). White blood cells (WBC, for leukopenia) were counted after a 10-fold dilution of heparinized blood in distilled water containing 1% acetic acid (vol/vol). […]
# [2] = tested on: lymph node cells of the BALB/c mice; experiment: Cytokine production by 16/6Id-stimulated LNC of treated BALB/c mice (ELISA); type: in vivo; conditions: BALB/c mice immunized with 16/6Id, hCDR1 50 μg, LNC stimulated with 16/6Id
# Method: as §1, with “All assays were performed, in triplicate, in flat-bottomed microtiter plates (Falcon, Becton Dickinson, Oxmard, Calif., USA) in which 2×10^5 PBL were cultured in enriched RPMI-1640 as described (Dayan et al., 2000). The PBL were exposed to various concentrations (0.1-40 μg/well) of the human anti-DNA 16/6Id mAb with and without the addition of the various CDR-based peptides at a concentration of at least 10-fold excess over that of the 16/6Id. Phytohemagglutinin (PHA; 2 μg/well) was used as a control for culture conditions at each experiment. The cultures were incubated in 7.5% CO2 at 37° C. for 6 days. Eighteen hours before the cells were harvested, [^3H]-thymidine (0.5μ Ci of 5 Ci/mmol) (Nuclear Research Center, Negev, Israel) was added to all cultures.” left out
# SJL-derived LNC = experiment: In vivo inhibition of proliferation of SJL LNC to the human 16/6Id mAb; parameters: species or system mice; conditions: maximum % inhibition; 200 μg/mouse s.c. in PBS concomitant with priming
# Method: Because our aim was to test the inhibitory capacity of the peptides based on the CDR of the human 16/6Id autoantibody, it was of importance to find out whether peptides hCDR1 and hCDR3 are capable of inhibiting the priming to the whole molecule of the human 16/6Id mAb. To this end, BALB/c and SJL mice were primed with the human 16/6Id mAb (2 μg/mouse) in CFA intradermally in the hind footpads. The priming was done concomitant with the s.c. administration in PBS of 200 μg/mouse of hCDR1 to groups of BALB/c mice and of hCDR3 to SJL mice. Ten days following immunization, the mice were sacrificed and their LNCs were tested in vitro for their ability to proliferate to different concentrations (0.1-10 μg/well) of the human anti-DNA 16/6Id mAb.
# The results are presented as maximum % inhibition of the proliferation to the immunizing human 16/6Id mAb of lymph node cells of mice immunized and treated with the peptides hCDR1 and hCDR3 as compared with mice that were immunized with the 16/6Id mAb but were not treated with the peptides.
# SJL-derived LNCs = experiment: In vivo inhibition of proliferation of LNC of SJL mice immunized with mCDR3; conditions: maximum % inhibition; 200 μg s.c. in PBS concomitant with immunization; LNC tested ten days later
# Method: To this end, BALB/c and SJL mice were immunized with mCDR1 and mCDR3, respectively. The immunizing murine peptides were injected (10 μg/mouse) in CFA intradermally in the hind footpads. Concomitant with the immunization, groups of BALB/c mice were injected subcutaneously (s.c.) with 200 μg in PBS of hCDR1 and groups of SJL mice were similarly injected with hCDR3. Ten days after the immunization, mice were sacrificed and their lymph nodes were harvested and the cells were tested for their ability to proliferate following triggering with the immunizing peptides. Briefly, LNCs of immunized mice (0.5×10^6/well) were cultured (in triplicates) in the presence of different concentrations (1-20 μg/well) of the murine immunizing peptides in enriched RPMI-1640 medium supplemented with 1% normal mouse serum. Following four days of incubation, ^3H-thymidine was added for additional 16 hours. Cells were then harvested and radioactivity was counted using a β-counter.
# The inhibition was calculated based on the proliferation of LNCs of mice that were not treated with the inhibitory peptides hCDR1 and hCDR3. It can be seen that hCDR1 and hCDR3 were capable of inhibiting the proliferative responses to the immunizing murine CDR peptides.
Sequence,"levels of TGF-β ([1]; FIG. 15D, 15E (spleen cells))","INF-γ in supernatants of 16/6Id stimulated lymph node cultures ([1]; both doses (200 and 300 μg), FIG. 15A)","TNF-α in supernatants of 16/6Id stimulated lymph node cultures ([1]; both doses (200 and 300 μg), FIG. 15B)","IL-10 in supernatants of 16/6Id stimulated lymph node cultures ([1]; both doses (200 and 300 μg), FIG. 15C)",production of INF-γ ([2]; FIG. 3A),secretion of TGF-β ([2]; FIG. 3B),secretion of IL-10 ([2]; FIG. 3C),% Inhibition of the proliferation of SJL-derived LNC to the human 16/6Id mAb (SJL-derived LNC) [%],% Inhibition of the proliferation of SJL-derived LNCs to mCDR3 (SJL-derived LNCs) [%]
"GYYWSWIRQPPGKGEEWIG (Human) [hCDR1, 19-mer peptide based on the CDR1 of the heavy chain of the human 16/6Id mAb]",up-regulated,down regulated,down regulated,down regulated,down-regulated,up-regulated,up-regulated,–,–
"YYCARGLLRGGWNDVDYYGMDV (Human) [hCDR3, peptide based on the CDR3 of the heavy chain of the human 16/6Id mAb]",–,–,–,–,–,–,–,68,55
